According to PubChem BioAssay (NCI):
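Results reflect a 48-hour exposure of cells in 96-well plates to compound at five concentrations. GI50: concentration for 50% inhibition of growth. Definition used: TGI = concentration required for complete inhibition of growth.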

Assays:
Assay in all cases: growth of human tumour cells (NCI), 48 h
A498 renal = test system: A498 renal
ACHN renal = test system: ACHN renal
HL-60(TB) leukemia = test system: HL-60(TB) leukemia
HS 578T breast = test system: HS 578T breast
K-562 leukemia = test system: K-562 leukemia
MALME-3M melanoma = test system: MALME-3M melanoma
NCI/ADR-RES ovarian = test system: NCI/ADR-RES ovarian
SK-OV-3 ovarian = test system: SK-OV-3 ovarian
T-47D breast = test system: T-47D breast
TK-10 renal = test system: TK-10 renal
UACC-257 melanoma = test system: UACC-257 melanoma
UO-31 renal = test system: UO-31 renal

NC(N)=Nc1ccc(Nc2cccc(Nc3ccc(Cl)c(C(F)(F)F)c3)c2)cn1
GI50 (A498 renal): 1690 nM
TGI (A498 renal): 4.72 µM
GI50 (ACHN renal): 3.58 µM
TGI (ACHN renal): 17.5 µM
GI50 (HL-60(TB) leukemia): 2310 nM
TGI (HL-60(TB) leukemia): 5.74 µM
GI50 (HS 578T breast): 2040 nM
TGI (HS 578T breast): 4.94 µM
GI50 (K-562 leukemia): 2540 nM
TGI (K-562 leukemia): > 100 µM
GI50 (MALME-3M melanoma): 2010 nM
TGI (MALME-3M melanoma): 5.36 µM
GI50 (NCI/ADR-RES ovarian): 21.6 µM
TGI (NCI/ADR-RES ovarian): 93.4 µM
GI50 (SK-OV-3 ovarian): 2810 nM
TGI (SK-OV-3 ovarian): 6.91 µM
GI50 (T-47D breast): 1850 nM
TGI (T-47D breast): 4.87 µM
GI50 (TK-10 renal): 2770 nM
TGI (TK-10 renal): 7.58 µM
GI50 (UACC-257 melanoma): 2390 nM
TGI (UACC-257 melanoma): 6.53 µM
GI50 (UO-31 renal): 4.33 µM
TGI (UO-31 renal): 38.3 µM
